Molecular target: T1, AKT1-E17K (Homo sapiens, UniProt P31749, E17K)
T1 construct: host or cells: HEK-293 (ATCC CRL-1573)
Assay: NanoBRET Target Engagement (TE) Assay
Assay type: cell-based
Conditions: full length AKT E17K NanoLuc fusion in transfected HEK-293 cells; 2 hr equilibration with tracer and compound
Source text: NanoBRET is a highly specific and validated cell-based technique for assessing target engagement (Vasta et al., 2018, Cell Chem Biol. 25(2):206-214). The NanoBRET™ Target Engagement (TE) Intracellular Kinase Assays are based on the NanoBRET™ System (Promega Corporation), an energy transfer technique designed to measure molecular proximity in living cells. The NanoBRET™ TE Assays measure the apparent affinity of test compounds by competitive displacement of the NanoBRET™ tracer compound, which is a cell permeable molecule engineered to be reversibly bound to a NanoLuc® luciferase-kinase fusion expressed in cells. For compound screening, when a test compound binds to the selected kinase, the BRET signal is attenuated. For kinase inhibitors in particular, intracellular target selectivity is fundamental to pharmacological mechanism and allows the proteins of interest to be in the correct cellular confirmation. Although non-cell-based techniques have been developed to measure kinase binding or enzymatic inhibition with accuracy and precision, such approaches can fail to accurately predict engagement of the full-length target protein in the more complex and biologically relevant cellular context (Knight and Shokat, 2005, Chem. Biol. 12, 621-637; Smyth and Collins, 2009, J. Chem. Biol. 2, 131-151). […] Briefly, HEK-293 cells (ATCC Cat #CRL-1573) were used for transfection purposes using FuGENE HD Transfection Reagent (Promega Cat #E2311). All cells were evaluated for viability prior to transfection and optimization of the transfection was done prior to experimentation. Greater than 95% viability was used for all experiments. Following transfection, cells were washed and resuspended in Opti-MEM. NanoBRET assays were performed in white, 384-well plates (Corning) at a density of 2×10^5 cells/well. All example compounds were prepared as concentrated stock solutions in DMSO (Sigma-Aldrich). Compounds are dissolved in DMSO to make 10 mM stock solution. Example compounds were transferred as 40 μL of 10 mM stock solution to a 384 pp-plate (LABCYTE, PP-0200) and diluted in 3-fold, 10-point dilution via transferring […] by Apricot liquid handler. A Labcyte ECHO 550 compound dispenser was used to facilitate compound transfer directly to cells. Cells were equilibrated for 2 hr with energy transfer probes and example compound prior to BRET measurements. The AKTE17K (Promega Cat #NV2421) as well as specific probe (NanoBRET tracer, Promega Cat #N264B) was prepared at a concentration of 20× in tracer dilution buffer (12.5 mM HEPES, 31.25% PEG-400, pH 7.5). For target engagement analysis, the energy transfer probes were added to the cells at concentrations optimized for the target in question (AKT E17K). Following compound incubation, NanoBRET NanoGlo Substrate (Promega Cat #N157D) and Extracellular Nanoluc Inhibitor (Promega Cat #N235C) was added according to the manufacturer's recommended protocol, and luminescence was measured on Envision Reader (Perkin Elmer) Multimode Luminometer equipped with 450 nmBPfilter (donor) and 600 nmLPfilter (acceptor), using 0.5 s integration time. Milli-BRET units (mBU) are calculated by multiplying the raw BRET values by 1000. Apparent tracer affinity values (EC50) were determined using the sigmoidal dose-response (variable slope). Competitive displacement data were then plotted and data were fit to determine the EC50 value for each example compound.

T1 sequence (P31749 whole entry E17K): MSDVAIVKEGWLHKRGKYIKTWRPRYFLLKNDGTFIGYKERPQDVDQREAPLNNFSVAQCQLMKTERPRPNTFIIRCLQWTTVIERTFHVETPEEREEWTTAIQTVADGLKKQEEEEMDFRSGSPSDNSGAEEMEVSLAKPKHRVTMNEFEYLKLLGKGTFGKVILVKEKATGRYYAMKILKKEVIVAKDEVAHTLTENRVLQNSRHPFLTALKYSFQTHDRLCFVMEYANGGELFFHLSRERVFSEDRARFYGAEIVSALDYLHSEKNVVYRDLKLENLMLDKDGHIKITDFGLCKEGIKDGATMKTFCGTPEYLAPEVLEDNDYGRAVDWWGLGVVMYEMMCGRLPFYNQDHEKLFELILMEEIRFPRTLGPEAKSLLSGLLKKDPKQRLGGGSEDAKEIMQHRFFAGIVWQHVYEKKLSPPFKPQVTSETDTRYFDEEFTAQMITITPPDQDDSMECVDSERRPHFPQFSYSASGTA

Structure (SMILES)	IC50 [nM]
N#CNC1CCN(Cc2ccc(-n3c(-c4cccnc4N)nc4ccc(-c5ccccc5)nc43)cc2)CC1 [Example 3, N-(1-(4-(2-(2-Aminopyridin-3-yl)-5-phenyl-3H-imidazo[4,5-b]pyridin-3-yl)benzyl)piperidin-4-yl)cyanamide]	< 15
N#CN1CC2(CCN(Cc3ccc(-n4c(-c5cccnc5N)nc5ccc(-c6ccccc6)nc54)cc3)CC2)C1 [Example 15, 7-(4-(2-(2-Aminopyridin-3-yl)-5-phenyl-3H-imidazo[4,5-b]pyridin-3-yl)benzyl)-2,7-diazaspiro[3.5]nonane-2-carbonitrile]	15 to 60
N#CN1CCN(Cc2ccc(-n3c(-c4cccnc4N)nc4ccc(-c5ccccc5)nc43)cc2)CC1 [Example 2, 4-(4-(2-(2-Aminopyridin-3-yl)-5-phenyl-3H-imidazo[4,5-b]pyridin-3-yl)benzyl)piperazine-1-carbonitrile]	> 600
N#CN1CC2(CCN(Cc3ccc(-n4c(-c5cccnc5N)nc5ccc(-c6ccccc6)nc54)cc3)C2)C1 [Example 18, 6-(4-(2-(2-Aminopyridin-3-yl)-5-phenyl-3H-imidazo[4,5-b]pyridin-3-yl)benzyl)-2,6-diazaspiro[3.4]octane-2-carbonitrile]	60 to 600
N#CN1CCCC2(CCN(Cc3ccc(-n4c(-c5cccnc5N)nc5ccc(-c6ccccc6)nc54)cc3)C2)C1 (stereo not drawn) [Example 21, 2-(4-(2-(2-Aminopyridin-3-yl)-5-phenyl-3H-imidazo[4,5-b]pyridin-3-yl)benzyl)-2,7-diazaspiro[4.5]decane-7-carbonitrile]	> 600
N#CN1CCC2(CCN(Cc3ccc(-n4c(-c5cccnc5N)nc5ccc(-c6ccccc6)nc54)cc3)CC2)C1 [Example 16, 8-(4-(2-(2-Aminopyridin-3-yl)-5-phenyl-3H-imidazo[4,5-b]pyridin-3-yl)benzyl)-2,8-diazaspiro[4.5]decane-2-carbonitrile]	< 15
N#CNC1CCN(Cc2ccc(-n3c(-c4cccnc4N)nc4cc(-c5ccccc5)cnc43)cc2)CC1 [Example 11, N-(1-(4-(2-(2-Aminopyridin-3-yl)-6-phenyl-3H-imidazo[4,5-b]pyridin-3-yl)benzyl)piperidin-4-yl)cyanamide]	60 to 600
N#CN1CCCN(Cc2ccc(-n3c(-c4cccnc4N)nc4ccc(-c5ccccc5)nc43)cc2)CC1 [Example 12, 4-(4-(2-(2-Aminopyridin-3-yl)-5-phenyl-3H-imidazo[4,5-b]pyridin-3-yl)benzyl)-1,4-diazepane-1-carbonitrile]	60 to 600
CN(C#N)C1CCN(Cc2ccc(-n3c(-c4cccnc4N)nc4ccc(-c5ccccc5)nc43)cc2)CC1 [Example 14, N-(1-(4-(2-(2-Aminopyridin-3-yl)-5-phenyl-3H-imidazo[4,5-b]pyridin-3-yl)benzyl)piperidin-4-yl)-N-methylcyanamide]	15 to 60
N#CNC1CCN(Cc2ccc(-n3c(-c4cccnc4N)nc4cccnc43)cc2)CC1 [Example 1, N-(1-(4-(2-(2-Aminopyridin-3-yl)-3H-imidazo[4,5-b]pyridin-3-yl)benzyl)piperidin-4-yl)cyanamide]	> 600
N#CN1CCC2(CC1)CCN(Cc1ccc(-n3c(-c4cccnc4N)nc4ccc(-c5ccccc5)nc43)cc1)C2 [Example 20, 2-(4-(2-(2-Aminopyridin-3-yl)-5-phenyl-3H-imidazo[4,5-b]pyridin-3-yl)benzyl)-2,8-diazaspiro[4.5]decane-8-carbonitrile]	15 to 60
N#CNC1CC2(CCN(Cc3ccc(-n4c(-c5cccnc5N)nc5ccc(-c6ccccc6)nc54)cc3)CC2)C1 [Example 13, N-(7-(4-(2-(2-Aminopyridin-3-yl)-5-phenyl-3H-imidazo[4,5-b]pyridin-3-yl)benzyl)-7-azaspiro[3.5]nonan-2-yl)cyanamide]	< 15
N#CN[C@H]1CCN(Cc2ccc(-n3c(-c4cccnc4N)nc4ccc(-c5ccccc5)nc43)cc2)C1 [Example 7, (S)—N-(1-(4-(2-(2-Aminopyridin-3-yl)-5-phenyl-3H-imidazo[4,5-b]pyridin-3-yl)benzyl)pyrrolidin-3-yl)cyanamide]	< 15

Other lines, results leading:

IC50 [nM]	Structure (SMILES)
< 15	N#CN1CCC2(C1)CN(Cc1ccc(-n3c(-c4cccnc4N)nc4ccc(-c5ccccc5)nc43)cc1)C2 [Example 38, 2-(4-(2-(2-Aminopyridin-3-yl)-5-phenyl-3H-imidazo[4,5-b]pyridin-3-yl)benzyl)-2,6-diazaspiro[3.4]octane-6-carbonitrile]
60 to 600	N#CN1C[C@@H]2CN(Cc3ccc(-n4c(-c5cccnc5N)nc5ccc(-c6ccccc6)nc54)cc3)C[C@@H]2C1 [Example 43, (3aR,6aS)-5-(4-(2-(2-Aminopyridin-3-yl)-5-phenyl-3H-imidazo[4,5-b]pyridin-3-yl)benzyl)hexahydropyrrolo[3,4-c]pyrrole-2(1H)-carbonitrile]
60 to 600	N#CN1CCCC2(C1)CN(Cc1ccc(-n3c(-c4cccnc4N)nc4ccc(-c5ccccc5)nc43)cc1)C2 [Example 39, 2-(4-(2-(2-Aminopyridin-3-yl)-5-phenyl-3H-imidazo[4,5-b]pyridin-3-yl)benzyl)-2,6-diazaspiro[3.5]nonane-6-carbonitrile]
60 to 600	N#CN1CC2CCC1CN2Cc1ccc(-n2c(-c3cccnc3N)nc3ccc(-c4ccccc4)nc32)cc1 (stereo not drawn) [Example 37, 5-(4-(2-(2-Aminopyridin-3-yl)-5-phenyl-3H-imidazo[4,5-b]pyridin-3-yl)benzyl)-2,5-diazabicyclo[2.2.2]octane-2-carbonitrile]
< 15	N#CN1CC[C@@]2(CCN(Cc3ccc(-n4c(-c5cccnc5N)nc5ccc(-c6ccccc6)nc54)cc3)C2)C1 [Example 23, (R)-7-(4-(2-(2-Aminopyridin-3-yl)-5-phenyl-3H-imidazo[4,5-b]pyridin-3-yl)benzyl)-2,7-diazaspiro[4.4]nonane-2-carbonitrile]
> 600	C[C@@H]1CN(Cc2ccc(-n3c(-c4cccnc4N)nc4ccc(-c5ccccc5)nc43)cc2)C[C@@H](C)N1C#N [Example 26, (2R,6R)-4-(4-(2-(2-Aminopyridin-3-yl)-5-phenyl-3H-imidazo[4,5-b]pyridin-3-yl)benzyl)-2,6-dimethylpiperazine-1-carbonitrile]
> 600	C[C@H]1CN(Cc2ccc(-n3c(-c4cccnc4N)nc4ccc(-c5ccccc5)nc43)cc2)CCN1C#N [Example 32, (S)-4-(4-(2-(2-Aminopyridin-3-yl)-5-phenyl-3H-imidazo[4,5-b]pyridin-3-yl)benzyl)-2-methylpiperazine-1-carbonitrile]
60 to 600	N#CN1C[C@@H]2C[C@H]1CN2Cc1ccc(-n2c(-c3cccnc3N)nc3ccc(-c4ccccc4)nc32)cc1 [Example 34, (1S,4S)-5-(4-(2-(2-Aminopyridin-3-yl)-5-phenyl-3H-imidazo[4,5-b]pyridin-3-yl)benzyl)-2,5-diazabicyclo[2.2.1]heptane-2-carbonitrile]
60 to 600	N#CN1CCC2(CC1)CN(Cc1ccc(-n3c(-c4cccnc4N)nc4ccc(-c5ccccc5)nc43)cc1)C2 [Example 22, 2-(4-(2-(2-Aminopyridin-3-yl)-5-phenyl-3H-imidazo[4,5-b]pyridin-3-yl)benzyl)-2,7-diazaspiro[3.5]nonane-7-carbonitrile]
15 to 60	N#CNC1CCCN(Cc2ccc(-n3c(-c4cccnc4N)nc4ccc(-c5ccccc5)nc43)cc2)CC1 (stereo not drawn) [Example 30, N-(1-(4-(2-(2-Aminopyridin-3-yl)-5-phenyl-3H-imidazo[4,5-b]pyridin-3-yl)benzyl)azepan-4-yl)cyanamide]
60 to 600	N#CN1C2CCC1CN(Cc1ccc(-n3c(-c4cccnc4N)nc4ccc(-c5ccccc5)nc43)cc1)C2 [Example 28, 3-(4-(2-(2-Aminopyridin-3-yl)-5-phenyl-3H-imidazo[4,5-b]pyridin-3-yl)benzyl)-3,8-diazabicyclo[3.2.1]octane-8-carbonitrile]

Source: patent US20260193274A1, “AKT1 MODULATORS” (Alterome Therapeutics, Inc., priority 2022, published 2026)
